Assay [1] in a line: in vitro kinetics of precipitation of hydroxyapatite (Example 1, FIG. 1). The settings on record: [phosphate]=1.5 mM, [Ca^2+]=60 mg/l, pH=7.5. On the procedure: In said FIG. 1 it is shown that the first curve corresponds to direct precipitation without phytate or Zn^2+. The second (Zn^2+) consists of the addition of 0.038 μM of Zn^2+. […] The third curve (Phytate) corresponds to the precipitation of hydroxyapatite in the presence of 0.38 μM of phytate. […] Finally, the last graph (Phytate+Zn^2+) corresponds to the precipitation in the presence of 0.38 μM of phytate and 0.038 μM of Zn^2+ (phytate-Zn molar ratio 10:1).
An in vitro system was designed to study the kinetics of precipitation of hydroxyapatite. A system using the following experimental conditions: [phosphate]=1.5 mM, [Ca^2+]=60 mg/l, pH=7.5, was used. The kinetics of precipitation of the hydroxyapatite was recorded with a Shimadzu (UV-120-02) spectrophotometer using 3 ml plastic vials and recording the absorbance every 5 minutes at 550 nm.

Assay [2] in a line: in vitro kinetics of precipitation of hydroxyapatite (Example 2, FIG. 2). The settings on record: [phosphate]=2.5 mM, [Ca^2+]=60 mg/l, pH=7.5. On the procedure:
In said FIG. 2 it is shown that the first series corresponds to the direct precipitation without phytate or Zn^2+. The second consists of the addition of 0.3 μM of Zn^2+. […] The third series corresponds to the precipitation of hydroxyapatite in the presence of 1.5 μM of phytate.
Finally, two series using 1.5 μM phytate and two different concentrations of zinc: Zn^2+: 0.3 μM (phytate-Zn molar ratio 5:1) and 0.15 μM (phytate-Zn molar ratio 10:1), respectively, are shown.
With the same system as in example 1, a system using the following experimental conditions: [phosphate]=2.5 mM, [Ca^2+]=60 mg/l, pH=7.5, was used. The kinetics of precipitation of the hydroxyapatite was recorded with a Shimadzu (UV-120-02) spectrophotometer using 3 ml plastic vials and recording the absorbance every 5 minutes at 550 nm.

SMILES strings stand for the structures. Entries after “also recorded” stand apart in the source; their conditions may differ.

Turning to `O=P(O)(O)O[C@H]1[C@H](OP(=O)(O)O)[C@@H](OP(=O)(O)O)[C@H](OP(=O)(O)O)[C@@H](OP(=O)(O)O)[C@H]1OP(=O)(O)O` [Phytate, Myo-inositol hexaphosphate], the “inhibiting effect on precipitation of hydroxyapatite” value in assay [1] (0.38 μM of phytate) and in assay [2] (1.5 μM of phytate) was “significant inhibiting effect” throughout.
On to `[Zn+2]` [Zn^2+], for which the “inhibiting effect on precipitation of hydroxyapatite” value was “no inhibiting effect” in assay [1] (0.038 μM of Zn^2+) and “no inhibiting effect; also recorded: does not show any inhibiting effect” in assay [2] (0.3 μM of Zn^2+).

For the origin of these results see US9144578B2, “Fixed-dose association of phytate and zinc” (Universitat De Les Illes Balears, priority 2006, dated 2015).
